Source: ChEMBL document CHEMBL4680217, “Discovery of PROTAC BCL-X degraders as potent anticancer agents with low on-target platelet toxicity” (Eur J Med Chem, 2020)
The source made the active and inactive calls. The rule behind the calls is not given here.

What was measured:
MOLT-4 [1] = experiment: Antiproliferative activity against human MOLT-4 cells assessed as reduction in cell viability measured after 48 hrs by MTS assay; type: functional, cell-based; details: MOLT-4, 48 h
RS4-11 = experiment: Antiproliferative activity against human RS4-11 cells assessed as reduction in cell viability measured after 48 hrs by MTS assay; type: functional, cell-based; details: RS4-11, 48 h
NCI-H146 = experiment: Antiproliferative activity against human NCI-H146 cells assessed as reduction in cell viability measured after 48 hrs by MTS assay; type: functional, cell-based; details: NCI-H146, 48 h
[2] = Toxicity in human platelet assessed as reduction in cell viability measured after 48 hrs by MTS assay; type: tissue-based; details: human platelets
[3] = Selectivity index, ratio of IC50 for human platelet to IC50 for human MOLT-4 cells
MOLT-4 [4] = experiment: Induction of apoptosis in human MOLT-4 cells assessed as viable cells at 10 nM measured after 48 hrs by Alexa Fluor 647-Annexin V/propidium iodide staining based flow cytometry (reference value: 97.1 to 97.3%); type: functional; details: read-out: Activity
MOLT-4 [5] = experiment: Induction of apoptosis in human MOLT-4 cells assessed as early apoptotic cells at 10 nM measured after 48 hrs by Alexa Fluor 647-Annexin V/propidium iodide staining based flow cytometry (reference value: 1.5 to 1.7%); type: functional
MOLT-4 [6] = experiment: Induction of apoptosis in human MOLT-4 cells assessed as late apoptotic cells at 10 nM measured after 48 hrs by Alexa Fluor 647-Annexin V/propidium iodide staining based flow cytometry (reference value: 1.1 to 1.4%); type: functional
MOLT-4 [7] = experiment: Induction of apoptosis in human MOLT-4 cells assessed as necrotic cells at 10 nM measured after 48 hrs by Alexa Fluor 647-Annexin V/propidium iodide staining based flow cytometry (reference value: 0.3 to 0.4%); type: functional
MOLT-4 [8] = experiment: Induction of apoptosis in human MOLT-4 cells assessed as viable cells at 100 nM measured after 48 hrs by Alexa Fluor 647-Annexin V/propidium iodide staining based flow cytometry (reference value: 97.1 to 97.3%); type: functional; details: read-out: Activity
MOLT-4 [9] = experiment: Induction of apoptosis in human MOLT-4 cells assessed as early apoptotic cells at 100 nM measured after 48 hrs by Alexa Fluor 647-Annexin V/propidium iodide staining based flow cytometry (reference value: 1.5 to 1.7%); type: functional
MOLT-4 [10] = experiment: Induction of apoptosis in human MOLT-4 cells assessed as late apoptotic cells at 100 nM measured after 48 hrs by Alexa Fluor 647-Annexin V/propidium iodide staining based flow cytometry (reference value: 1.1 to 1.4%); type: functional
MOLT-4 [11] = experiment: Induction of apoptosis in human MOLT-4 cells assessed as necrotic cells at 100 nM measured after 48 hrs by Alexa Fluor 647-Annexin V/propidium iodide staining based flow cytometry (reference value: 0.3 to 0.4%); type: functional
MOLT-4 [12] = experiment: Induction of apoptosis in human MOLT-4 cells assessed as viable cells at 100 nM measured after 48 hrs in presence of pan-caspase inhibitor QVD by Alexa Fluor 647-Annexin V/propidium iodide staining based flow cytometry (reference value: 97.1 to 97.3%); type: functional; details: read-out: Activity
MOLT-4 [13] = experiment: Induction of apoptosis in human MOLT-4 cells assessed as early apoptotic cells at 100 nM measured after 48 hrs in presence of pan-caspase inhibitor QVD by Alexa Fluor 647-Annexin V/propidium iodide staining based flow cytometry (reference value: 1.5 to 1.7%); type: functional
MOLT-4 [14] = experiment: Induction of apoptosis in human MOLT-4 cells assessed as late apoptotic cells at 100 nM measured after 48 hrs in presence of pan-caspase inhibitor QVD by Alexa Fluor 647-Annexin V/propidium iodide staining based flow cytometry (reference value: 1.1 to 1.4%); type: functional
MOLT-4 [15] = experiment: Induction of apoptosis in human MOLT-4 cells assessed as necrotic cells at 100 nM measured after 48 hrs in presence of pan-caspase inhibitor QVD by Alexa Fluor 647-Annexin V/propidium iodide staining based flow cytometry (reference value: 0.3 to 0.4%); type: functional
[16] = target: T1, Protein cereblon/Bcl-2-like protein 1 (Homo sapiens, UniProt Q07817+Q96SW2); experiment: Protac activity at CRBN/BCL-XL in human MOLT-4 cells assessed as induction of BCL-XL degradation measured after 16 hrs by immunoblotting analysis; type: cell-based
[17] = target: T1, Protein cereblon/Bcl-2-like protein 1; experiment: Protac activity at CRBN/BCL-XL in human MOLT-4 cells assessed as induction of BCL-XL degradation by measuring remaining BCL-XL level at 50 nM measured after 16 hrs by immunoblotting analysis relative to control; type: cell-based
[18] = target: Protein cereblon/Apoptosis regulator Bcl-2 (Homo sapiens) (UniProt P10415+Q96SW2); experiment: Protac activity at CRBN/BCL2 in human MOLT-4 cells assessed as induction of BCL2 degradation at 50 nM measured after 16 hrs by immunoblotting analysis; type: cell-based
MOLT-4 [19] = experiment: Potency index, ratio of ABT-263 IC50 to test compound IC50 for antiproliferative activity against human MOLT-4 cells assessed as reduction in cell viability measured after 48 hrs by MTS assay; type: functional
[20] = target: T1, Protein cereblon/Bcl-2-like protein 1; experiment: Protac activity at CRBN/BCL-XL in human MOLT-4 cells assessed as induction of BCL-XL degradation at 100 nM measured within 2 hrs by immunoblotting analysis; type: cell-based
[21] = target: T1, Protein cereblon/Bcl-2-like protein 1; experiment: Protac activity at CRBN/BCL-XL in human MOLT-4 cells assessed as induction of BCL-XL degradation at 100 nM measured after 8 hrs by immunoblotting analysis relative to control; type: cell-based
[22] = target: T1, Protein cereblon/Bcl-2-like protein 1; experiment: Protac activity at CRBN/BCL-XL in human MOLT-4 cells assessed as induction of BCL-XL degradation at 100 nM preincubated for 16 hrs followed by compound washout by immunoblotting analysis; type: cell-based
[23] = target: T1, Protein cereblon/Bcl-2-like protein 1; experiment: Protac activity at CRBN/BCL-XL in human MOLT-4 cells assessed as induction of BCL-XL degradation at 10 to 100 nM measured after 16 hrs in presence of competitive CRBN ligand pomalidomide by immunoblotting analysis; type: cell-based; details: dose 10-100 nM
[24] = target: T1, Protein cereblon/Bcl-2-like protein 1; experiment: Protac activity at CRBN/BCL-XL in human MOLT-4 cells assessed as induction of BCL-XL degradation at 3.7 to 300 nM measured after 16 hrs in presence of proteasome inhibitor MG-132 by immunoblotting analysis; type: cell-based; details: dose 3.7-300 nM
[25] = target: T1, Protein cereblon/Bcl-2-like protein 1; experiment: Protac activity at CRBN/BCL-XL in human platelet assessed as induction of BCL-XL degradation up to 1 uM measured after 16 hrs by immunoblotting analysis; details: dose microM <=1, time 16.0 hrs
[26] = Ratio of IC50 for human MOLT-4 cells in presence of pomalidomide to IC50 for human MOLT-4 cells; type: functional
MOLT-4 [27] = experiment: Induction of apoptosis in human MOLT-4 cells assessed as increase in cleaved PARP expression measured after 16 hrs by immunoblotting analysis; type: functional, cell-based
MOLT-4 [28] = experiment: Induction of apoptosis in human MOLT-4 cells assessed as increase in cleaved caspase-3 expression measured after 16 hrs by immunoblotting analysis; type: functional, cell-based
[29] = target: T2, Cereblon/Ikaros (Homo sapiens) (UniProt Q96SW2+Q13422); experiment: Protac activity at CRBN/IKZF1 in human MOLT-4 cells assessed as induction of IKZF1 degradation at 10 nM measured after 16 hrs by immunoblotting analysis; type: cell-based
[30] = target: T3, Protein cereblon/Zinc finger protein Aiolos (Homo sapiens) (UniProt Q96SW2+Q9UKT9); experiment: Protac activity at CRBN/IKZF3 in human MOLT-4 cells assessed as induction of IKZF3 degradation at 10 nM measured after 16 hrs by immunoblotting analysis; type: cell-based
[31] = target: T2, Cereblon/Ikaros (Homo sapiens); experiment: Protac activity at CRBN/IKZF1 in human MOLT-4 cells assessed as induction of IKZF1 degradation at 100 nM measured after 16 hrs by immunoblotting analysis; type: cell-based
[32] = target: T3, Protein cereblon/Zinc finger protein Aiolos (Homo sapiens); experiment: Protac activity at CRBN/IKZF3 in human MOLT-4 cells assessed as induction of IKZF3 degradation at 100 nM measured after 16 hrs by immunoblotting analysis; type: cell-based
[33] = target: T1, Protein cereblon/Bcl-2-like protein 1; experiment: Protac activity at CRBN/BCL-XL in human MOLT-4 cells assessed as induction of BCL-XL degradation at 33 to 1000 nM measured after 16 hrs by immunoblotting analysis; type: cell-based; details: dose 33-1000 nM

| Compound | IC50 (MOLT-4 [1]) [nM] | IC50 (RS4-11) [nM] | IC50 (NCI-H146) [nM] | IC50 at 48 h [2] [nM] | Ratio IC50 [3] | viability at 0.01 µM (MOLT-4 [4]) [%] | Activity (MOLT-4 [5]) [%] | Activity (MOLT-4 [6]) [%] | Activity (MOLT-4 [7]) [%] | viability at 0.1 µM (MOLT-4 [8]) [%] | Activity (MOLT-4 [9]) [%] | Activity (MOLT-4 [10]) [%] | Activity (MOLT-4 [11]) [%] | viability at 0.1 µM (MOLT-4 [12]) [%] | Activity (MOLT-4 [13]) [%] | Activity (MOLT-4 [14]) [%] | Activity (MOLT-4 [15]) [%] | DC50 [16] [nM] | Activity [17] [%] | Activity [18] | also measured |
| --- | --- | --- | --- | --- | --- | --- | --- | --- | --- | --- | --- | --- | --- | --- | --- | --- | --- | --- | --- | --- | --- |
| CN(C)CC[C@H](CSc1ccccc1)Nc1ccc(S(=O)(=O)NC(=O)c2ccc(N3CCN(Cc4ccccc4-c4ccc(Cl)cc4)CC3)cc2)cc1[N+](=O)[O-] [ABT 737] | 227 | 49 | 43.8 | 242 | 1.1 | 96 | 2.5 | 1.4 | 0.1 | 40.7 | 47.4 | 11.6 | 0.4 | 83.1 | 2.6 | 8.6 | 5.4 |  |  |  |  |
| CN(CCOCCOCCOCCNc1cccc2c1C(=O)N([C@@H]1CCC(=O)NC1=O)C2=O)CC[C@H](CSc1ccccc1)Nc1ccc(S(=O)(=O)NC(=O)c2ccc(N3CCN(CC4=C(c5ccc(Cl)cc5)CCC(C)(C)C4)CC3)cc2)cc1S(=O)(=O)C(F)(F)F | 10.1 | 41.8 | 25.3 | 1220 | 120 | 21.9 | 58.1 | 18.7 | 1 | 1.4 | 45.5 | 52.7 | 0.2 | 23.1 | 18.7 | 56.7 | 1.3 | 2.5 | 4 | inactive | Activity [16]: Dose-dependent effect; Ratio IC50 (MOLT-4 [19]): 22; Activity [20]: Active; Activity [21]: > 96%; Activity [22]: inactive; Activity [23]: inactive; Activity [24]: inactive; Activity [25]: inactive; Ratio IC50 [26]: 27; Activity (MOLT-4 [27]): Dose-dependent effect; Activity (MOLT-4 [28]): Dose-dependent effect; Activity [29]: inactive; Activity [30]: inactive; Activity [31]: Active; Activity [32]: Active |
| CN(CCOCCOCCOCCNc1cccc2c1C(=O)N([C@@H]1CCC(=O)N(C)C1=O)C2=O)CC[C@H](CSc1ccccc1)Nc1ccc(S(=O)(=O)NC(=O)c2ccc(N3CCN(CC4=C(c5ccc(Cl)cc5)CCC(C)(C)C4)CC3)cc2)cc1S(=O)(=O)C(F)(F)F |  |  |  |  |  |  |  |  |  |  |  |  |  |  |  |  |  |  |  |  | Activity [33]: inactive |
| CC1(C)CCC(c2ccc(Cl)cc2)=C(CN2CCN(c3ccc(C(=O)NS(=O)(=O)c4ccc(N[C@H](CCN5CCN(CCOCCOCCOCCNc6cccc7c6C(=O)N([C@@H]6CCC(=O)NC6=O)C7=O)CC5)CSc5ccccc5)c(S(=O)(=O)C(F)(F)F)c4)cc3)CC2)C1 | 17.3 | 38.5 | 24.6 | 1560 | 90 |  |  |  |  |  |  |  |  |  |  |  |  | 4.5 | 5 | inactive | Ratio IC50 (MOLT-4 [19]): 12 |
